Here are results for one compound from PMC6176987, “Correction of cognitive deficits in mouse models of Down syndrome by a pharmacological inhibitor of DYRK1A” (Disease Models & Mechanisms, 2018).

For one assay, the system named is Dyrk1a mRNA. In words: Brain Dyrk1a mRNA expression by qPCR after treatment. Format: in vivo, mouse. The conditions noted are these: 19 days daily i.p., Tg(Dyrk1a), Ts65Dn and wt brains. The source says: To validate the Tg(Dyrk1a) and Ts65Dn models in terms of DYRK1A expression and function, we first verified the expression levels of Dyrk1a mRNA (Fig. 4A) and DYRK1A protein (Fig. 4B) in brains derived from control or L41-treated animals (19 days, daily i.p.). Total mRNAs were extracted from brains and Dyrk1a, Gsk-3b and Rplp0 mRNAs were quantified by quantitative polymerase chain reaction (qPCR) with specific primers. […] We next measured DYRK1A catalytic activities from transgenic and wt brain protein extracts (Fig. 4C). […] As expected, DYRK1A activity was elevated by ∼1.5- to 1.8-fold in transgenic brains compared with wt brains (Fig. 4C).
Fig. 4. Dyrk1a mRNA and DYRK1A protein expression, and catalytic activity in Tg(Dyrk1a) and corresponding wt mice brains, and in Ts65Dn and corresponding wt mice brains. (A) mRNA expression. Total RNA was extracted, purified and reverse transcribed into cDNA. mRNA expression of Dyrk1a, Gsk-3b and reference Rplp0 was quantified by qPCR from the amplification of cDNA with specific primers (one primer annealing to an exon-exon junction). Results are presented as mean±s.e. of four to six measurements and are shown relative to Rplp0 expression, normalized to wt Gsk-3b expression. (B) Protein expression. Total proteins were extracted, resolved by SDS-PAGE and analysed by WB using antibodies directed against DYRK1A, GSK-3α/β and actin (loading control). […]

For the next assay, the system named is Tg(Dyrk1a) mice. Description: Y-maze working memory in Tg(Dyrk1a) mice. Format: in vivo, mouse. The conditions noted are these: L41-treated Tg(Dyrk1a) mice.
Assay [1] concerns the target T1, DYRK1A (Mus musculus, UniProt Q61214).
T1 construct: DYRK1A was purified from brain extracts by immunoprecipitation; from tissue; host or cells: mouse brain (wt, Tg(Dyrk1a), Ts65Dn)
In words: Brain DYRK1A catalytic activity after treatment, Tg(Dyrk1a) mice. In kind it is in vivo. As to the method:
(§1) Protein kinase assays to measure the catalytic activity of DYRK1A in the brains of the animals treated with or without drugs were performed as follows: frozen half brains were homogenized in lysis buffer (1.2 ml/half brain) using Precellys® homogenizer tubes. After centrifugation at 2800 g for 2×15 s, 1 mg brain extract was incubated with 2 µg DYRK1A (H00001859 M01, Interchim) or GSK3-β (MBS8508391, Emelca Bioscience, France) antibodies at 4°C for 1 h under gentle rotation. Then, 20 µl protein G agarose beads (Thermo Fisher Scientific, France), previously washed three times with bead buffer (50 mM Tris pH 7.4, 5 mM NaF, 250 mM NaCl, 5 mM EDTA, 5 mM EGTA, 0.1% Nonidet P-40 and protease inhibitor cocktail from Roche, France), were added to the mix and gently rotated at 4°C for 30 min. After a 1 min spin at 10,000 g and removal of the supernatant, the pelleted immune complexes were washed three times with bead buffer, and a last time with Buffer C (60 mM β-glycerophosphate, 30 mM p-nitrophenolphosphate, 25 mM Mops pH 7.2, 5 mM EGTA, 15 mM MgCl2, 2 mM dithiothreitol, 0.1 mM sodium orthovanadate, 1 mM phenylphosphate, protease inhibitor cocktail). DYRK1A or GSK-3 immobilized on beads were assayed in buffer C as described in the Supplementary Materials and Methods with Woodtide ([…]) (1.5 µg/assay) or GSK3-tide ([…]pSED-EEE, where pS stands for phosphorylated serine) as substrates.

For assay [2], the target named is T1, DYRK1A. In words: Brain DYRK1A catalytic activity after treatment, wt mice. Format: in vivo. The conditions noted are these: 19 days daily i.p. As to the method: as §1
For assay [3], the target named is T1, DYRK1A. In words: Brain DYRK1A catalytic activity after treatment, Ts65Dn mice. In kind it is in vivo. The conditions noted are these: 19 days daily i.p., normalized to GSK-3α/β activity. As for the experimental part:
as §1

The next assay addresses T2, CK2 (Homo sapiens, UniProt P68400).
T2 construct: Cochet
Description: Recombinant protein kinase assay, CK2. In kind it is biochemical. Particulars: 15 µM ATP.

T2 sequence (P68400 whole entry): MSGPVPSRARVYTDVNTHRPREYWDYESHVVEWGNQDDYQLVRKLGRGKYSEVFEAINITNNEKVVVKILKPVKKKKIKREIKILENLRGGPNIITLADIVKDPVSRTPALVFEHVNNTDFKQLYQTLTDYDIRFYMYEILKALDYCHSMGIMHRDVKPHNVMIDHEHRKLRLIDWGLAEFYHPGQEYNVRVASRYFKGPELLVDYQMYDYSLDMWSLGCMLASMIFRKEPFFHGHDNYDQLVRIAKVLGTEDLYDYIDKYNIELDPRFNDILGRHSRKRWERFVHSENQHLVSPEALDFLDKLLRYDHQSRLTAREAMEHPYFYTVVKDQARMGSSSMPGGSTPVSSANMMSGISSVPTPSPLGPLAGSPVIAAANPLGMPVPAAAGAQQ

For `O=C1NC(Nc2ccccc2)=N/C1=C\c1ccc2c(c1)OCO2` [L41], the “Effect on Dyrk1a mRNA levels” value with Dyrk1a mRNA was “did not modify”. The “Effect on working memory (Y-maze)” value in the assay with Tg(Dyrk1a) mice is “no restoring effect”. The “Tg(Dyrk1a) brain DYRK1A activity” value on DYRK1A [1] (24 h after the last treatment of 19 days) is given as “normalized to wt levels”; at DYRK1A [1] (48 h after the last treatment of 19 days), “no more effects”; at DYRK1A [1] (12 days of treatment) it was “normalized”; at DYRK1A [1] (19 days of treatment), “normalized”. Besides, the “DYRK1A inhibition in Tg(Dyrk1a) mice brains” value on DYRK1A [1] (5 days of treatment) was “not significant”. Moreover, the “Reduction of brain DYRK1A activity” value on DYRK1A [1] (19 days daily i.p., normalized to GSK-3α/β activity) was around 30%; at DYRK1A [3], around 30%. Moreover, at DYRK1A [2], the “Effect on brain DYRK1A activity” value is on record as “did not reduce”. The concentration for half-maximal inhibition (IC50) on CK2 was found to be 510 nM.
